According to paper PMC11096521 (Frontiers in Pharmacology, 2024):

Columns and labels:
BCRP = biological target: T1, BCRP (Homo sapiens, UniProt Q9UNQ0)
T1 construct: gene ABCG2
T1 sequence (Q9UNQ0 1-655): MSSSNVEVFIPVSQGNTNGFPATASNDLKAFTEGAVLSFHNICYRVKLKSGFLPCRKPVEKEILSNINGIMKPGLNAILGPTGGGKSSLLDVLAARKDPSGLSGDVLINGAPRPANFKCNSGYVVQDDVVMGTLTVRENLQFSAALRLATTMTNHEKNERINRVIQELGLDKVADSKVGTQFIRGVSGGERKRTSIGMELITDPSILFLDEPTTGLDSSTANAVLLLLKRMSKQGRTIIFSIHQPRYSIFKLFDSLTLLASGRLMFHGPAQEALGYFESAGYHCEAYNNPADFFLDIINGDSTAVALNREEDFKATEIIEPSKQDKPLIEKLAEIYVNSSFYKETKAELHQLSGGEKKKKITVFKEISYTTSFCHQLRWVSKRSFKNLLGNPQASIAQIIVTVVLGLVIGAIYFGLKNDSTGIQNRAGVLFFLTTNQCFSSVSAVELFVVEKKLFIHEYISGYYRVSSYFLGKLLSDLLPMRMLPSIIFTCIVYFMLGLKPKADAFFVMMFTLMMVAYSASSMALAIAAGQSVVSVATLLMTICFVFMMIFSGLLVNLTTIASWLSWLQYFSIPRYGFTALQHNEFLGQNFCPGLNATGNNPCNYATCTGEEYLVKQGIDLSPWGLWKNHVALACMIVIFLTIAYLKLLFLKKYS

P-gp = biological target: T2, P-gp (Homo sapiens, UniProt P08183); test: inhibition of ceralasertib-stimulated P-gp ATPase in crude membranes
T2 construct: gene ABCB1; crude membrane protein isolated from High Five insect cells
T2 sequence (P08183 whole entry): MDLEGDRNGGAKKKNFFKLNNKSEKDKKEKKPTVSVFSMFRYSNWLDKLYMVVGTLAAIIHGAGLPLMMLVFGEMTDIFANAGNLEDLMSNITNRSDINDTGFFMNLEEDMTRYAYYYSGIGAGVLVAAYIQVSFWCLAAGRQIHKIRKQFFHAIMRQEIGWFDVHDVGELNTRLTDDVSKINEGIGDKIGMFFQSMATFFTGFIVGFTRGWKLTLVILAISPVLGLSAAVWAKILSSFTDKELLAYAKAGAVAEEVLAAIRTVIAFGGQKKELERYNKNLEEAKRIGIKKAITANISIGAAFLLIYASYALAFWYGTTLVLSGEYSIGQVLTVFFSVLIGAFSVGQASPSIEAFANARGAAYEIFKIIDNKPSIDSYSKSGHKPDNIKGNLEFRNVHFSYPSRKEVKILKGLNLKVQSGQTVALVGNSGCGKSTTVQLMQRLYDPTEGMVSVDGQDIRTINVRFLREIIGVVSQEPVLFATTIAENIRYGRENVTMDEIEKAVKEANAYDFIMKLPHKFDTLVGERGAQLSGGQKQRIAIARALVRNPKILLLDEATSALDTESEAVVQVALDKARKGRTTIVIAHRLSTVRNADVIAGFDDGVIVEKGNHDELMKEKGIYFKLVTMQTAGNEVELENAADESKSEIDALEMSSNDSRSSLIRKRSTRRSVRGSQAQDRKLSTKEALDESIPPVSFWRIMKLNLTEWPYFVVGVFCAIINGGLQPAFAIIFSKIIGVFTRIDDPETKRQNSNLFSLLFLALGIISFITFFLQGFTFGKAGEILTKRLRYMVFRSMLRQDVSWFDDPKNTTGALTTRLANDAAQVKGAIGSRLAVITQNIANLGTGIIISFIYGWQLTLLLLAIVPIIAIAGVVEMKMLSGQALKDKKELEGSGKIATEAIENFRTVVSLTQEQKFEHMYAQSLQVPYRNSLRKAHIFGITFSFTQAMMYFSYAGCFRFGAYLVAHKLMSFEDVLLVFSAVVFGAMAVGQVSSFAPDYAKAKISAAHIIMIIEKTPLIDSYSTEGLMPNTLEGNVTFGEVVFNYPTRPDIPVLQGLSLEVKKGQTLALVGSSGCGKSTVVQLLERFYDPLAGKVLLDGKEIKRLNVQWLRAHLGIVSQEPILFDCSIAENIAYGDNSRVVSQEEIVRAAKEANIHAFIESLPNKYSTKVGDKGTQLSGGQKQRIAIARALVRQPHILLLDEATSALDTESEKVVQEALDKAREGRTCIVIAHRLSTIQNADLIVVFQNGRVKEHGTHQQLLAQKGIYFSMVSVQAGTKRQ

Compound	radiolabelled efflux/accumulation in NCI-H460/TPT10 cells, reversed by Ko143 (BCRP)	inhibition of ceralasertib-stimulated P-gp ATPase in crude membranes (P-gp)
O=C1c2c(O)ccc(O)c2C(=O)c2c(NCCNCCO)ccc(NCCNCCO)c21 [mitoxantrone]	BCRP-overexpressing NCI-H460/TPT10 cells have decreased intracellular level of [^3H]-mitoxantrone, which can be reversed by Ko143	–
CN1CCC(COc2cnc(-c3cccc(Cn4nc(-c5cccc(C#N)c5)ccc4=O)c3)nc2)CC1 [tepotinib]	–	Tepotinib, a P-gp ATPase inhibitor, was able to significantly block the activation caused by ceralasertib.
